Assay results: PubChem BioAssay AID624024 (Broad Institute, 2012)
Results filed as inconclusive are left out. The source made the active and inactive calls.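 The calls were made as follows: active = fitted curve rises past 40% HDL binding increase at a concentration no higher than twice the top valid tested dose; inconclusive = no clear call, values can overlap the other calls; inactive = effects opposite to the expected rise, plus the rest.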

target: Scavenger receptor class B member 1 (Mus musculus) (UniProt Q61009); experiment: SR-BI HDL particle binding change, fluorescent HDL – cell-based, ldlA[mSR-BI] CHO, Alexa 488-HDL, powder samples, set 3, orthogonal assay for SR-BI HDL uptake inhibitor project, dose response (AID 624024); settings: ldlA[mSR-BI] CHO cells, Alexa488-HDL binding fluorescence, 3 h
Sequence (Q61009 whole entry, looked up): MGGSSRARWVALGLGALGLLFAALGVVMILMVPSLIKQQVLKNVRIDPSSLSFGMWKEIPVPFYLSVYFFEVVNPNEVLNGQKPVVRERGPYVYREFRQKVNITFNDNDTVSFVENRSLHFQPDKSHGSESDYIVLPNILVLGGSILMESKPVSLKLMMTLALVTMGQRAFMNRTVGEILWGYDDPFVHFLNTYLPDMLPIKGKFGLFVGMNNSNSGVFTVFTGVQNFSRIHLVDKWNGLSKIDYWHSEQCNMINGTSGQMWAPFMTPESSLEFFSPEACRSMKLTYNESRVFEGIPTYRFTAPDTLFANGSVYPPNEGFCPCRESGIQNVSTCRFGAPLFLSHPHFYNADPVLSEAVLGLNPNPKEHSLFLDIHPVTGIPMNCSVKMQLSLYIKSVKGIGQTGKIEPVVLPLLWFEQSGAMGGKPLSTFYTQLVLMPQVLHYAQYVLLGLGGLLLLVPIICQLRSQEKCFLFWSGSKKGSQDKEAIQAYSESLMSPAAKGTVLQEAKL

Row | AC40 | SMILES
1 | 671 nM | CC(C)NC(=O)Nc1ccc2c(c1)C(=O)N([C@@H](C)CO)C[C@H](C)[C@@H](CN(C)S(=O)(=O)c1ccc(Cl)cc1)O2
2 | 138 nM | Cc1noc(C)c1S(=O)(=O)Nc1ccc2c(c1)C(=O)N([C@H](C)CO)C[C@@H](C)[C@H](CN(C)S(=O)(=O)c1ccc(Cl)cc1)O2
3 | 33.2 nM | C[C@@H]1CN([C@H](C)CO)C(=O)c2cc(NC(=O)Nc3ccc(F)cc3)ccc2O[C@H]1CN(C)S(=O)(=O)c1ccc(Cl)cc1
4 | 155 nM | CC(C)(C)OC(=O)N1CCN(c2ccc(NC(=O)c3cc([N+](=O)[O-])ccc3Cl)cc2)CC1
5 | 544 nM | CC(C)NC(=O)Nc1cccc2c1O[C@@H](CN(C)S(=O)(=O)c1ccc(Cl)cc1)[C@H](C)CN([C@H](C)CO)C2=O
6 | 1870 nM | C=CCOC(=O)N(C)C[C@@H]1Oc2ccc(NC(=O)OCC3c4ccccc4-c4ccccc43)cc2C(=O)N([C@H](C)CO)C[C@H]1C
7 | 57.6 nM | CC(C)NC(=O)Nc1ccc2c(c1)C(=O)N([C@@H](C)CO)C[C@@H](C)[C@@H](CN(C)S(=O)(=O)c1ccc(Cl)cc1)O2
8 | 1970 nM | C[C@@H]1CN([C@H](C)CO)C(=O)c2cc(NC(=O)C3CCOCC3)ccc2O[C@H]1CN(C)S(=O)(=O)c1ccc(Cl)cc1
9 | 1.76 nM | C[C@@H]1CN([C@H](C)CO)C(=O)c2cc(NC(=O)Cc3cn(C)c4ccccc34)ccc2O[C@H]1CN(C)S(=O)(=O)c1ccc(F)cc1
10 | 3380 nM | CNC[C@@H]1Oc2ccc(NC(=O)NC(C)C)cc2C(=O)N([C@H](C)CO[Si](C)(C)C(C)(C)C)C[C@H]1C
11 | 33.2 nM | C[C@@H]1CN([C@H](C)CO)C(=O)c2cc(NC(=O)C3CCCCC3)ccc2O[C@H]1CN(C)S(=O)(=O)c1ccc(Cl)cc1
12 | 772 nM | CC(C)CN(C(=O)COC(=O)C12CC3CC(CC(O)(C3)C1)C2)C1CCS(=O)(=O)C1 (configuration not stated)
13 | 3690 nM | CC(C)NC(=O)Nc1ccc2c(c1)C(=O)N([C@H](C)CO)C[C@@H](C)[C@@H](CN(C)S(=O)(=O)c1ccc(Cl)cc1)O2
14 | 2.72 nM | CCCCCCC1CCC/C1=N\NC(N)=S (configuration not stated)
15 | 3670 nM | CCOc1cc2c3c(c1)C1(C(=O)N3C(C)(C)CC2C)C(C#N)=C(N)N2C(=C1C#N)Nc1ccccc12 (configuration not stated)
16 | 19.9 nM | COCC(=O)N1CCc2cc(-c3csc(NC(=O)c4cc(OC)cc(OC)c4)n3)ccc21
17 | 222 nM | C[C@@H]1CN([C@H](C)CO)C(=O)c2cc(NC(=O)C3CCCCC3)ccc2O[C@H]1CN(C)S(=O)(=O)c1ccccc1Cl
18 | 17500 nM | C[C@@H]1CN([C@H](C)CO)C(=O)c2cc(NC(=O)C3CCCCC3)ccc2O[C@H]1CN(C)C(=O)c1ccc(Cl)cc1
19 | 218 nM | COc1c(NC(=O)C(=O)c2ccc(OCCN3CCOCC3)c3ccccc23)cc(C(C)(C)C)cc1NS(C)(=O)=O
20 | 12.1 nM | CC(C)NC(=O)Nc1ccc2c(c1)C(=O)N([C@@H](C)CO)C[C@H](C)[C@H](CN(C)S(=O)(=O)c1ccc(Cl)cc1)O2
21 | 20.3 nM | CC(C)NC(=O)Nc1ccc2c(c1)C(=O)N([C@@H](C)CO)C[C@@H](C)[C@H](CN(C)S(=O)(=O)c1ccc(Cl)cc1)O2
22 | 6330 nM | C[C@@H]1CN([C@H](C)CO[Si](C)(C)C(C)(C)C)C(=O)c2cc(NC(=O)C3CCCCC3)ccc2O[C@H]1CN(C)C(=O)c1ccc(Cl)cc1
23 | 3040 nM | C[C@@H]1CN([C@H](C)CO)C(=O)c2cc(NC(=O)C3CCCCC3)ccc2O[C@H]1CN(C)S(=O)(=O)c1cccc(Cl)c1
24 | 16.6 nM | CC(=O)Nc1ccc(Cl)c(C(=O)Nc2ccc(N3CCN(C(=O)OC(C)(C)C)CC3)cc2)c1
25 | 3760 nM | C=CCOC(=O)N(C)C[C@@H]1Oc2ccc(N)cc2C(=O)N([C@H](C)CO[Si](C)(C)C(C)(C)C)C[C@H]1C
26 | 4.61 nM | C[C@@H]1CN([C@H](C)CO)C(=O)c2cc(NC(=O)Cc3cn(C)c4ccccc34)ccc2O[C@H]1CN(C)S(=O)(=O)c1ccc(Cl)cc1
27 | 16.7 nM | C[C@H](C(=O)NC1CCCC1)N(C(=O)Cn1nnc(-c2ccc3c(c2)OCO3)n1)C1CCCCC1

same assay, conditions: ldlA[mSR-BI] CHO cells, Alexa488-HDL binding fluorescence, 3 h; at 35 µM (top of the series)

Row | HDL binding change, positive = increase | SMILES
28 | 90.1% (inactive) | C=CCOC(=O)N(C)C[C@@H]1Oc2ccc(NC(=O)NC(C)C)cc2C(=O)N([C@H](C)CO[Si](C)(C)C(C)(C)C)C[C@H]1C
29 | 64.3% (inactive) | O=C(O)CC(C(=O)Nc1cccc(C(F)(F)F)c1)C1CCCO1 (configuration not stated)
30 | 36% (inactive) | Cc1ccc(OCc2cc(C(=O)N3CCCC(O)C3)no2)cn1 (configuration not stated)
31 | 4.51% (inactive) | O=C1C2C3C=CC(C3)C2C(=O)N1c1cccc(N2C(=O)C3C4C=CC(C4)C3C2=O)n1 (configuration not stated)
32 | 37.2% (inactive) | COc1ccc2c(c1)CC(C1(O)C(=O)N(C)c3ccccc31)C2=O (configuration not stated)
